Article PMC9967275, “Screening the Pathogen Box to Discover and Characterize New Cruzain and TbrCatL Inhibitors” (Pathogens, 2023)

Experiments:
[1] = biological target: cruzain (Trypanosoma cruzi, UniProt P25779); experiment: biochemical; conditions: for Cruzain 0’ Inhibition / Cruzain 10’ Inhibition: sheet "Screening results"
Procedure: (§1) Allison Doak and Prof. Brian Shoichet (University of California San Francisco, San Francisco, CA, USA) and Prof. Conor Caffrey (University of California San Diego, San Diego, CA, USA) generously provided recombinant cruzain and TbrCatL, respectively. In vitro activity of proteases cruzain and TbrCatL was assayed as previously described. Briefly, enzyme activity was measured by monitoring the cleavage of the fluorogenic substrate […] (Z-FR-AMC) at 25 °C. Fluorescence was monitored at 340/440 nm (excitation/emission) over 5–7 min in a Synergy2 Biotek plate reader. […] DMSO and 1 μM E-64 were employed as negative and positive controls, respectively, in all assays. Two conditions were employed for both enzymes: 10′ pre-incubation of the enzyme in the presence of the compound (10′ inc) and no pre-incubation (0′). Reported values correspond to the mean and standard error of the mean (SEM) and all analyses were performed using GraphPad Prism 6.0.
(§2) For the initial screening, compounds were assayed at 5 μM. […] IC50 curves were obtained from a non-linear fit of at least seven distinct compound concentrations, in triplicate. Reported IC50 values are the mean and SEM of two independent measurements.

[2] = biological target: T1, TbrCatL (Trypanosoma brucei rhodesiense, UniProt Q95PM0); experiment: TbrCatL enzymatic inhibition assay (cleavage of fluorogenic substrate Z-FR-AMC); format: biochemical; conditions: for TbrCatL 0’ Inhibition / TbrCatL 10’ Inhibition: sheet "Screening results"
T1 construct: Conor Caffrey (University of California San Diego)
Procedure: as §1, §2

[3] = 0’ (no pre-incubation), sheet Screening results
[4] = 10’ (pre-incubation), sheet Screening results
[5] = 0’ (pre-incubation time), Pathogen Box screening results
[6] = 10’ (pre-incubation time), Pathogen Box screening results
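Note: at 5 µM compound concentration.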

Sequence of cruzain (P25779 123-337 limits assumed): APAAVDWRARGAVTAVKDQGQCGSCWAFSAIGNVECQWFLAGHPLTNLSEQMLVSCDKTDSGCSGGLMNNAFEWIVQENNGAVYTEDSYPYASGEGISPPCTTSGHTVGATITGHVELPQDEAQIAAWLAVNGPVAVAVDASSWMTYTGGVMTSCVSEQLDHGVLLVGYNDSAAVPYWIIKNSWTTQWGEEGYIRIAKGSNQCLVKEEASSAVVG
T1 sequence (Q95PM0 entry or part of it): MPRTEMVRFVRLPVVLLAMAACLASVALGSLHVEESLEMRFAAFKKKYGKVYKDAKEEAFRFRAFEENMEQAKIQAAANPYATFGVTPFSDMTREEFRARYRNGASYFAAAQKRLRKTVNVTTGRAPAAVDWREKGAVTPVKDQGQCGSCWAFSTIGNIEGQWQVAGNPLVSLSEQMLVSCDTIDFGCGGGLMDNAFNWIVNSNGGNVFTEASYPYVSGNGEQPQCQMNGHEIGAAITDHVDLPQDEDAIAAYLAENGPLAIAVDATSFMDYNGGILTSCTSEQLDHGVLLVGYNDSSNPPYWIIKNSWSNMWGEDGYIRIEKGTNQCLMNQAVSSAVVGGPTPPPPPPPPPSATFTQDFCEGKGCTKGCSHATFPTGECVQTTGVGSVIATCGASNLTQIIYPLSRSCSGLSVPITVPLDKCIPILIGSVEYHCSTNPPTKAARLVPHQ

Row | SMILES | Cruzain Inhibition 0’ [1, 3] [%] | Cruzain Inhibition 10’ [1, 4] [%] | TbrCatL Inhibition 0’ [2, 3] [%] | TbrCatL Inhibition 10’ [2, 4] [%] | Cruzain 0’ Inhibition ([1]; 0’ (pre-incubation time)) [%] | Cruzain 10’ Inhibition ([1]; 10’ (pre-incubation time)) [%] | TbrCatL 0’ Inhibition ([2]; 0’ (pre-incubation time)) [%] | TbrCatL 10’ Inhibition ([2]; 10’ (pre-incubation time)) [%] | further results
1 | CC(=O)NCC1CN(c2ccc(-c3ccc(CO)cc3)c(F)c2)C(=O)O1 (stereo not shown) [MMV688508] | -0.1 | -2 | -0.7 | -5 | – | – | – | – | –
2 | CN(C)CCNC(=O)N1CCCN(c2ncnc3cc(-c4ccccc4)sc23)CC1 [MMV024195] | – | – | – | – | -3.2 | 1.9 | 1.1 | -1.4 | –
3 | c1coc(CNc2nc(N3CCCCC3)nc3ccccc23)c1 [MMV676401] | 4.6 | 9 | 6.5 | 15 | – | – | – | – | –
4 | O=C1O[C@@H](CO)CN1c1cc(F)c(C2=CCN(Cc3ccccc3)CC2)c(F)c1 [MMV687729] | – | – | – | – | -2 | 6 | -0.7 | -6.5 | –
5 | CC(=O)NC[C@@H]1CN(c2ccc(N3CCOCC3)c(F)c2)C(=O)O1 [MMV687803] | -8 | -4 | 3.8 | -0.1 | – | – | – | – | –
6 | Brc1c(-c2ccc3c(c2)OCO3)nc2ncccn12 [MMV676377] | 1.2 | -0.9 | 5 | -1.8 | – | – | – | – | –
7 | C[C@H](c1ccc2c(c1)CCCC2)N(C)c1ncc2c(N)nc(N)nc2n1 [MMV690103] | – | – | – | – | -2.7 | 16 | -18 | -22 | –
8 | CN1CCC(NCc2cccc(-c3ccc(S(=O)(=O)NCc4ccccc4)cc3)c2)CC1 [MMV022029] | – | – | – | – | -2.3 | 29 | -8 | 14 | –
9 | O=C(Nc1c(O)cccc1-c1nc2c(C(=O)O)cccc2o1)c1cc(-c2ccccc2)on1 [MMV676008] | – | – | – | – | -3.3 | 8 | 2.6 | -3.7 | –
10 | O=C(N[C@H](Cc1ccccc1)C(=O)Nc1ccccc1N1CCOCC1)c1cccs1 [MMV688845] | – | – | – | – | 1 | 4.5 | -0.3 | 2.3 | –
11 | O=C(Nc1ccnc(-c2cccnc2)n1)c1cc(C(F)(F)F)cc(C(F)(F)F)c1 [MMV019838] | 2 | 16 | -8 | -5 | – | – | – | – | –
12 | CS(=O)(=O)c1cccc(-c2cnc3[nH]cc(-c4ccc(CCC(=O)O)cc4)c3c2)c1 [MMV026020] | 12 | 17 | 15 | 20 | – | – | – | – | –
13 | COc1ccc(-c2nn(C(C)C)c3ncnc(N)c23)cc1OC [MMV675993] | – | – | – | – | -7 | -1.8 | -7 | -5.6 | –
14 | CCCCOC(=O)Nc1cc2[nH]c(C3CCCCC3)nc2cc1N1CCCC1 [MMV687730] | – | – | – | – | 12 | 4.4 | 19 | 12 | –
15 | C[C@@H]1[C@H](O)[C@@H](C)/C=C/C=C/C=C/C=C/C=C/C=C/C=C/[C@H](O[C@@H]2O[C@H](C)[C@@H](O)[C@H](N)[C@@H]2O)C[C@@H]2O[C@](O)(C[C@@H](O)C[C@@H](O)[C@H](O)CC[C@@H](O)C[C@@H](O)CC(=O)O[C@H]1C)C[C@H](O)[C@H]2C(=O)O [MMV689000] | – | – | – | – | 10 | 10 | 11 | 9 | –
16 | COc1ccccc1C(C)NCC(=O)Nc1cc(C(F)(F)F)ccc1Cl (stereo not shown) [MMV020321] | 0.3 | -0.8 | -9 | -10 | – | – | – | – | –

Row | SMILES | Cruzain Inhibition 0’ [1, 3] [%] | Cruzain Inhibition 10’ [1, 4] [%] | TbrCatL Inhibition 0’ [2, 3] [%] | TbrCatL Inhibition 10’ [2, 4] [%] | Cruzain 0’ Inhibition ([1]; 0’ (pre-incubation time)) [%] | Cruzain 10’ Inhibition ([1]; 10’ (pre-incubation time)) [%] | TbrCatL 0’ Inhibition ([2]; 0’ (pre-incubation time)) [%] | TbrCatL 10’ Inhibition ([2]; 10’ (pre-incubation time)) [%] | further results
17 | CC(C)C(C(=O)Nc1ccc(S(=O)(=O)N(C)C)cc1)c1ccc(Cl)cc1 (stereo not shown) [MMV020391] | -1.5 | 2 | -3.4 | -2.5 | – | – | – | – | –
18 | Cc1ccc(NC(=O)CC2COc3ccccc3O2)cc1Cl (stereo not shown) [MMV676431] | 0.5 | 4.3 | 5 | 5 | – | – | – | – | –
19 | CC(=O)N1CCc2cc3nc(C)cc(C)c3cc21 [MMV054312] | 10 | 11 | 9 | 19 | – | – | – | – | –
20 | O=C(NCc1ccco1)N1CCN(Cc2ccc(Cl)s2)CC1 [MMV688555] | -0.7 | 0.5 | 6 | 0.9 | – | – | – | – | –
21 | CCC(NC(=O)c1ccccc1NC(=O)c1ccc(C)cc1)C(=O)OC (stereo not shown) [MMV019551] | – | – | – | – | -0.5 | 1.2 | -0.4 | 3.2 | –
22 | CC(=O)NC[C@H]1CN(c2ccc(-c3ccc(CNCc4cn[nH]n4)cc3)c(F)c2)C(=O)O1 [MMV688327] | -3.5 | 4 | -5.5 | 6.4 | – | – | – | – | –
23 | Cc1nn(C(=O)Nc2cccc(C(F)(F)F)c2)c(C)c1Sc1ncccn1 [MMV688552] | – | – | – | – | – | – | – | – | Cruzain Inhibition 0’ [1, 5]: 2.3%; Cruzain Inhibition 10’ [1, 6]: 0.1%; TbrCatL Inhibition 0’ [2, 5]: -0.1%; TbrCatL Inhibition 10’ [2, 6]: 5%
24 | O=C(Nc1ccccc1-c1nc2c(C(=O)O)cccc2o1)c1ccccc1 [MMV676162] | – | – | – | – | 8 | 9 | 2.6 | 6 | –
25 | CNC(=O)c1nn(C)c2c1C(C)(C)Cc1cnc(Nc3ccc(N4CCN(C)CC4)cc3)nc1-2 [MMV676602] | 0.9 | -6 | 4 | 1.5 | – | – | – | – | –
26 | CNc1nnc(Sc2cnn(-c3ccccc3)c(=O)c2Cl)s1 [MMV688763] | 6 | 9 | 7.5 | 1.7 | – | – | – | – | –
27 | O=C(C1CCCCC1)N1CC(=O)N2CCc3ccccc3[C@@H]2C1 [MMV002529] | 22 | 18 | 5 | 5.7 | – | – | – | – | –
28 | COCC(C)NC(=O)CSc1ncnc2sc(-c3ccccc3)cc12 (stereo not shown) [MMV676536] | 18 | 16 | 13 | 33 | – | – | – | – | –
29 | CCNC(=O)C(C)Nc1nc(-c2cccnc2)nc2sc(C)c(C)c12 (stereo not shown) [MMV1037162] | – | – | – | – | -0.8 | 1.7 | 6 | -0.5 | –
30 | COC(=O)c1c(NC(=O)c2c(F)c(F)c(F)c(F)c2F)sc2c1CCCCC2 [MMV461553] | -34 | -24 | -16 | 9 | – | – | – | – | –
31 | OCCc1ccc(Nc2nccc(-c3nnc4ccccn34)n2)cc1 [MMV028694] | – | – | – | – | 7 | 14 | 8 | 13 | –
